These results are taken from patent US8846653B2, “Delta-tocotrienol treatment and prevention of pancreatic cancer” (University of South Florida, priority 2006, dated 2014).

Assay [1] deals with SW1990 cells. As to the kind of experiment: Annexin V-FITC staining, flow cytometry for apoptosis. Format: cell-based, human. Conditions: SW1990, varying concentrations, 24 hours. How it is done: FIG. 5 is a graph wherein SW1990 pancreatic cancer cells were treated with in varying concentrations of δ-tocotrienol or vehicle for 24 hours. Cells were collected and stained with Annexin V-FITC and analyzed by flow cytometry for apoptosis.
(§1) MiaPaCa2 and HPDE 6C7 cells were cultured, as discussed above, and treated with δ-tocotrienol or vehicle. […] MiaPaCa-2, BxPc-3, and SW1990 pancreatic cancer cells were treated with in varying concentrations of δ-tocotrienol or vehicle for 24 hours. The cells were then harvested for annexin V-FITC staining and analyzed by flow cytometry.
A general note: A flow cytometer gives signals particle by particle.

The test system of assay [2] is SW1990 cells. Description: Proliferation by MTT, increasing concentrations of δ-tocotrienol. Format: cell-based, human. Conditions: SW1990, at 24 hours; read-out: IC50 (inhibition of proliferation, MTT). Here is the method:
FIG. 23 is a graph wherein SW1990 pancreatic cancer cells (3×10^3) were plated in 96 well plates and treated the following day with δ-tocotrienol. Proliferation was assessed by MTT at 24 hour intervals. […] HPDE 6C7 cells were also treated with increasing concentrations of 8-tocotrienol for 24 hours.
(§2) MIA PaCa2, SW1990, BXPC3, and HPDE 6C7 cells (3×10^3) were cultured as described in the Examples above, in 96-well plates and treated the following day with increasing concentrations of δ-tocotrienol.

The subject of assay [3] is MIA PaCa-2 cells (pZWL vector and myrAKT). As to the kind of experiment: Cell death (trypan blue) in vector and myrAKT MIA PaCa-2 cells. The format is cell-based, human. Conditions: MIA PaCa-2 vector vs myr-AKT cells, 24 hours, compared to vehicle. How it is done:
FIG. 12 is a graph wherein MIA PaCa-2 cells (pZWL vector and myrAKT) were treated without serum vehicle or δ-tocotrienol (50 μM) for 24 hours, with and without a 10-hour caspase 8/3 inhibitor pretreatment. Cells were also treated with TRAIL as a positive control. Cells were then harvested, fixed, permeablized and stained with trypan blue.
To further identify the role of AKT in the apoptotic pathways noted in Example 2, functional overexpression of CA-AKT was analyzed in Mia-PaCa2 pancreatic cancer cells. MIA PaCa-2 cells were treated with pZWL vector and myrAKT, a retroviral vector encoding myristoylated AKT, with or without serum, vehicle, or δ-tocotrienol (40 or 50 μM) for 24 hours, with and without a 10-hour caspase 8 inhibitor pretreatment. Cells were also treated with TRAIL as a positive control. Cells were then harvested, fixed, permeablized and stained with trypan blue.
The myristoylated AKT rescued δ-tocotrienol suppression PI3K-AKT signaling. The MiaPaCa-2 parental cell lines were stably transfected using constitutively active myristoylated AKT in a pWZL vector construct to generate MiaPaCa-2AKT cells. […] Lastly, pretreatment with caspase 3, 8 and 9 inhibitors rescued tocotrienol induced cell death.

Assay [4] has as its system pancreatic cancer metastasis. Description: Pancreatic cancer metastasis in vivo (luminescence). Further details: species or system mouse. The text has this: Images show comparison of vehicle vs. 100 MPK
The apoptotic effect of delta-tocotrienol was selective for neoplastic cells as normal pancreatic cells and in vitro immortalized human pancreatic ductal epithelial cells were not sensitive to delta-tocotrienol.

For assay [5], the system named is MIA PaCa2 xenografts. Description: MIA PaCa2 luciferase xenograft tumor growth in nude mice. The format is in vivo. Conditions: 100 mg/kg/day by gavage. How it is done: Rate of growth by day 10 of treatment is less in the tocotrienol treatment group. Stable transfectants of MIA PaCa2 cells with luciferase were injected subcutaneously into nude mice. Tumor volumes were measured every 2 days with calibers and the rate of growth was determined weekly by measuring tumor luminescence using the IVIS 100 Xenogen system. Tumors of similar volume (100-150 mm^3) and rate of growth based on luminescence were randomized to receive either vehicle or δ-tocotrienol (100 mg/kg/day) by gavage for 20 days.
Stable transfectants of MIA PaCa2 cells with luciferase were injected subcutaneously into nude mice. Mice were treated with either rice bran oil (vehicle) or δ-tocotrienol (100 mg/kg/day) via gavage five times per week. Tumor volumes were measured every 2 days with calibers and the rate of growth was determined weekly by measuring tumor luminescence using the IVIS 100 Xenogen system. Tumors of similar volume (100-150 mm^3) and rate of growth based on luminescence were randomized to receive either vehicle or δ-tocotrienol (100 mg/kg/day) by gavage for 20 days.

Assay [6] concerns p-AKT. As to the kind of experiment: Immunoblot for p-AKT and AKT. Format: cell-based, human. Conditions: MIA PaCa2 and SW1990, 20 μM, 24 and 48 hours. How it is done:
The Ras effector pathways Raf-MEK-ERK and PI3 kinase-AKT are important for cell proliferation and survival, respectively. Pancreatic cancer cell lines (MIA PaCa2, SW1990, BXPC3) and HPDE 6C7 cells were treated with 8-tocotrienol (20 μM) and cell lysates were collected and prepared at progressive time intervals as described above. Proteins from lysates were run by SDS PAGE and immunoblotted with the following antibodies: Ras, p-cRaf (ser 338), p-MEK1/2, MEK1/2, pERK 44/42, ERK 44/42 (Cell Signaling) and c-Raf (BD Transduction Laboratories). […] The MIA PaCa2 and SW1990 cells were then tested for AKT inhibition. The cells were treated with δ-tocotrienol (20 μM) for 24 and 48 hours and cell lysates were run by SDS-PAGE and immunoblotted for p-AKT and AKT (Cell Signaling). […] Taken together, the inhibition of downstream effectors of oncogenic Ras signaling by δ-tocotrienol without an effect on Ras protein levels may indicate a negative regulatory role of 8-tocotrienol on the function of oncogenic Ras. The pancreatic ductal epithelial cell proliferative inhibition by δ-tocotrienol was tested to see if it occurs through blocking aberrant signal transduction cascades. […]
Background: In western blotting, separated proteins are transferred to a membrane and probed.

Assay [7] concerns MIA PaCa2 cells. Description: Proliferation by MTT, increasing concentrations of δ-tocotrienol. Format: cell-based, human. Conditions: MIA PaCa2, at 24 hours; read-out: IC50 (inhibition of proliferation, MTT). Here is the method:
FIG. 22 is a graph wherein MIA PaCa2 pancreatic cancer cells (3×10^3) were plated in 96 well plates and treated the following day with δ-tocotrienol. Proliferation was assessed by MTT at 24 hour intervals. […] HPDE 6C7 cells were also treated with increasing concentrations of δ-tocotrienol for 24 hours.
as §2

Assay [8] concerns MiaPaCa-2 cells. Description: Annexin V-FITC staining, flow cytometry for apoptosis. Format: cell-based, human. Conditions: MiaPaCa-2, varying concentrations, 24 hours. Here is the method: FIG. 3 is a graph wherein MIA PaCa-2 pancreatic cancer cells were treated with in varying concentrations of δ-tocotrienol or vehicle for 24 hours. Cells were collected and stained with Annexin V-FITC and analyzed by flow cytometry for apoptosis.
as §1

As to `CC(C)=CCC/C(C)=C/CC/C(C)=C/CC[C@]1(C)CCc2cc(O)cc(C)c2O1` [T3 delta, delta tocotrienol], the “induction of apoptosis (annexin V-FITC)” value in assay [1] and in assay [8] was “dose dependent induction of apoptosis” each time. The IC50 in assay [2] and in assay [7] was 20 to 25 µM in each case. Also, the cell death result in assay [3] is on record as “induced more cell death in the vector cells than the myr-AKT cells”. Besides, in assay [4] (highest dose, compared to vehicle/PBS), the “tumor response at the highest dose” value is listed as “tumor regression”. For the same molecule, the pancreatic cancer metastasis entry in assay [4] (in vivo, vs vehicle/PBS) is “inhibits pancreatic cancer metastasis”. Also, the “rate of growth by tumor luminescence” value in assay [5] (day 10 of treatment) is reported as “significantly less”. For the same molecule, in assay [5] (nude mice, vs vehicle), the “reduction in tumor growth” value came to 50%. For the same molecule, the p-AKT protein levels result in assay [6] is “decrease in p-AKT protein levels”.
